Assay results from ChEMBL document CHEMBL1201862, “PubChem BioAssay data set” (2004).
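Dose response: 5 concentrations. Exposure: 48 h. Format: 96-well plates. Endpoint: linear interpolation; highest concentration if not reached. Here, GI50 denotes the concentration required for 50% inhibition of growth.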 The source made the active and inactive calls. Cut-off read from the data, not from the text of the source: active = GI50 up to about 1.1 µM and inactive = higher. Where a SMILES comes first, the peptide text is derived from it. [ ]: non-standard residue; d: D form. Phe(4-NO2) = N[CH](Cc1ccc([N+](=O)[O-])cc1)C(=O)O

Columns and labels:
Test in all cases: DTP human tumour cell line panel, 48 h
CCRF-CEM = test system: CCRF-CEM
DU-145 = test system: DU-145
HCC 2998 = test system: HCC 2998
HCT-15 = test system: HCT-15
HL-60 = test system: HL-60
HOP-62 = test system: HOP-62
MDA-MB-435 = test system: MDA-MB-435
MOLT-4 = test system: MOLT-4
Malme-3M = test system: Malme-3M
NCI-H226 = test system: NCI-H226
NCI-H460 = test system: NCI-H460
NCI/ADR-RES = test system: NCI/ADR-RES
OVCAR-5 = test system: OVCAR-5
SF-268 = test system: SF-268
SF-295 = test system: SF-295
SK-MEL-2 = test system: SK-MEL-2
T47D = test system: T47D
UACC-257 = test system: UACC-257
UACC-62 = test system: UACC-62
UO-31 = test system: UO-31

| Compound | GI50 (CCRF-CEM) | GI50 (DU-145) | GI50 (HCC 2998) | GI50 (HCT-15) [µM] | GI50 (HL-60) | GI50 (HOP-62) | GI50 (MDA-MB-435) | GI50 (MOLT-4) | GI50 (Malme-3M) | GI50 (NCI-H226) | GI50 (NCI-H460) | GI50 (NCI/ADR-RES) | GI50 (OVCAR-5) | GI50 (SF-268) | GI50 (SF-295) | GI50 (SK-MEL-2) | GI50 (T47D) | GI50 (UACC-257) | GI50 (UACC-62) | GI50 (UO-31) |
| --- | --- | --- | --- | --- | --- | --- | --- | --- | --- | --- | --- | --- | --- | --- | --- | --- | --- | --- | --- | --- |
| COc1cccc2c(=O)c3c(n(C)c12)OC(C(C)C)C3 (stereo not given) | > 100 µM (inactive) | > 100 µM (inactive) | > 100 µM (inactive) | 46.9 | 69.7 µM (inactive) | > 100 µM (inactive) | > 100 µM (inactive) | 16.9 µM (inactive) | > 100 µM (inactive) | 83.2 µM (inactive) | 52.1 µM (inactive) | 55.7 µM (inactive) | > 100 µM (inactive) | > 100 µM (inactive) | > 100 µM (inactive) | > 100 µM (inactive) | 87.3 µM (inactive) | > 100 µM (inactive) | > 100 µM (inactive) | 40.7 µM (inactive) |
| O=C(N=C1N(c2ccccc2)C(=O)C(=O)N1c1ccccc1)c1ccccc1 | 24.8 µM (inactive) | 6.7 µM (inactive) | 8.53 µM (inactive) | 9.66 | 31.2 µM (inactive) | 11.5 µM (inactive) | 22.9 µM (inactive) | 15.5 µM (inactive) | 17.4 µM (inactive) | 12 µM (inactive) | 11.7 µM (inactive) | 11 µM (inactive) | 27.5 µM (inactive) | 15.1 µM (inactive) | 11.3 µM (inactive) | 15.5 µM (inactive) | 15.6 µM (inactive) | 29.9 µM (inactive) | 7.93 µM (inactive) | 14.5 µM (inactive) |
| COC(=O)C1(N2CCOCC2)CCC([C@@H](c2ccccc2)C(C)[N+](=O)[O-])C1 (stereo not given in full) | 0.603 µM (active) | 19.7 µM (inactive) | > 100 µM (inactive) | 66.8 | 85.3 µM (inactive) | > 100 µM (inactive) | > 100 µM (inactive) | > 100 µM (inactive) | > 100 µM (inactive) | > 100 µM (inactive) | > 100 µM (inactive) | > 100 µM (inactive) | > 100 µM (inactive) | > 100 µM (inactive) | > 100 µM (inactive) | > 100 µM (inactive) | 2.03 µM (inactive) | 28 µM (inactive) | > 100 µM (inactive) | > 100 µM (inactive) |
| NC(=S)N/N=C/C1NCCC2CCCCC21 (stereo not given) | 0.31 µM (active) | 0.173 µM (active) | 0.108 µM (active) | 0.0895 | 0.291 µM (active) | 0.0938 µM (active) | 0.414 µM (active) | 0.257 µM (active) | 0.254 µM (active) | 0.314 µM (active) | 0.231 µM (active) | 0.254 µM (active) | 0.796 µM (active) | 0.313 µM (active) | 0.0673 µM (active) | 0.824 µM (active) | 0.282 µM (active) | 0.601 µM (active) | 0.0452 µM (active) | 0.34 µM (active) |
| COc1ccc(-c2nc3c(C(=O)NCCN(C)C)cccc3c3ccccc23)cc1 | 2.77 µM (inactive) | 4.65 µM (inactive) | 1.95 µM (inactive) | 2.92 | 2.07 µM (inactive) | 3.06 µM (inactive) | 2.2 µM (inactive) | 2.07 µM (inactive) | 4.3 µM (inactive) | 5.57 µM (inactive) | 2.45 µM (inactive) | 7.31 µM (inactive) | 3.95 µM (inactive) | 8.53 µM (inactive) | 2.18 µM (inactive) | 5.21 µM (inactive) | 8.99 µM (inactive) | 1.89 µM (inactive) | 1.83 µM (inactive) | 1.16 µM (inactive) |
| COc1ccc(/C=C/C(=O)c2ccccc2)cc1OC | 2.53 µM (inactive) | 11.4 µM (inactive) | 17.9 µM (inactive) | 7.03 | 8.89 µM (inactive) | 15.4 µM (inactive) | 4.59 µM (inactive) | 13.5 µM (inactive) | 16.7 µM (inactive) | 19.8 µM (inactive) | 16.6 µM (inactive) | 21.2 µM (inactive) | 16.9 µM (inactive) | 14.5 µM (inactive) | 16.4 µM (inactive) | 17.3 µM (inactive) | 10.8 µM (inactive) | 17.3 µM (inactive) | 13.4 µM (inactive) | 13.3 µM (inactive) |
| CC(NC(=O)C(Cc1ccc([N+](=O)[O-])cc1)NC(=O)C(N)CCCCN)C(=O)NC(Cc1ccc([N+](=O)[O-])cc1)C(N)=O (stereo not given) (H-K[Phe(4-NO2)]A[Phe(4-NO2)]-NH2; configuration not given here) | > 100 µM (inactive) | 53.5 µM (inactive) | 28.1 µM (inactive) | 56.6 | 18.7 µM (inactive) | 11.7 µM (inactive) | > 52.6 µM (inactive) | > 31.6 µM (inactive) | 50.8 µM (inactive) | 98.9 µM (inactive) | 20.6 µM (inactive) | 69 µM (inactive) | > 100 µM (inactive) | > 50 µM (inactive) | 32.7 µM (inactive) | 51.5 µM (inactive) | > 49.1 µM (inactive) | > 68.2 µM (inactive) | > 100 µM (inactive) | 44.4 µM (inactive) |
